Measured values from US20230174571A1, “METHOD OF TREATING SHIP1-MEDIATED DISEASES USING PELOROL DERIVATIVES” (Zebrapeutics Inc., priority 2020, published 2023).
Positions count from the first letter of the chain named. Values belong to the compound of their own block, whether it stands above or below them.

Key:
PAC2 WT = target: T1, PAC2 WT (Mus musculus, UniProt Q9ES52); experiment: Biolayer interferometry, wild-type PAC2; type: binding; details: 20 μM analyte; compared to compound I-2 or PI(3,4)P2
T1 construct: PAC1 and PAC2 consists of phosphatase and C2 domain (residues aa 402-861 and aa 402-857 respectively); made in house; host or cells: E. coli BL21 co-transformed with pBirAcm
T1 sequence (Q9ES52 402-857): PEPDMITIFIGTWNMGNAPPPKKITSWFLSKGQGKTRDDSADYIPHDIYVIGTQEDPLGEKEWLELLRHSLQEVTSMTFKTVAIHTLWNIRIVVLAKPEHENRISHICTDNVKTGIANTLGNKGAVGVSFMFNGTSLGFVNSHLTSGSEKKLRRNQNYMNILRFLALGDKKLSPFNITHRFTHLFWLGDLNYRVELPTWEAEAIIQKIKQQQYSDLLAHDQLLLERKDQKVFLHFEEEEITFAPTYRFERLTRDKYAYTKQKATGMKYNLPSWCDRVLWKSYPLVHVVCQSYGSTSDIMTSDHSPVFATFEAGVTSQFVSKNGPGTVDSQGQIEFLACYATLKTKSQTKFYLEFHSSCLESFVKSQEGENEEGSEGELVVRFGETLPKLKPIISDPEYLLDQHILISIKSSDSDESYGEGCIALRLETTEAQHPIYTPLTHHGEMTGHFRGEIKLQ
Protocol: (§1) Expression of PAC2-Avi tag for Biolayer interferometry. A sequence corresponding to Avi-tag ([…]) was added to the c-terminal end of the PAC2 in LIC-HMT-PAC2 expressing vector via standard restriction digestion and ligation. The LIC-HMT-PAC2-Avi expressing vector was then co-transformed into E. coli BL21 cells with pBirAcm expression vector in 1:1 molar ratio. Overnight culture was inoculated with a 250-fold dilution to start the actual culture. The cells were grown at 37° C. in LB medium (supplemented with 50 μg/mL of kanamycin and 10 μg/mL of chloramphenicol) with shaking speed of 225 rpm. When OD600 reached about 0.6, 5 mM of biotin in bicine buffer pH 8.3 was added to the culture to have final concentration of 125 μM of biotin. The culture was then cooled down to room temperature before the addition of 0.4 mM isopropyl-B-D-1-thiogalactopyranoside (IPTG) to induce the expression of the recombinant protein with Avi-tag. The rest of the method is identical as written in “Expression of PAC2 for crystallography”.
(§2) Biolayer interferometry. […] The association was measured for 600 s at an analyte concentration of 20 μM followed by dissociation for 300 s in the same buffer as the baseline. The raw data was analyzed using the Octet Red Data Analysis software (ver. 8.2). […]

SHIP1 [1] = target: T2, SHIP1 (Homo sapiens, UniProt Q92835); details: Stenton et al., 2013b; cited from earlier work
T2 sequence (Q92835 1-1189): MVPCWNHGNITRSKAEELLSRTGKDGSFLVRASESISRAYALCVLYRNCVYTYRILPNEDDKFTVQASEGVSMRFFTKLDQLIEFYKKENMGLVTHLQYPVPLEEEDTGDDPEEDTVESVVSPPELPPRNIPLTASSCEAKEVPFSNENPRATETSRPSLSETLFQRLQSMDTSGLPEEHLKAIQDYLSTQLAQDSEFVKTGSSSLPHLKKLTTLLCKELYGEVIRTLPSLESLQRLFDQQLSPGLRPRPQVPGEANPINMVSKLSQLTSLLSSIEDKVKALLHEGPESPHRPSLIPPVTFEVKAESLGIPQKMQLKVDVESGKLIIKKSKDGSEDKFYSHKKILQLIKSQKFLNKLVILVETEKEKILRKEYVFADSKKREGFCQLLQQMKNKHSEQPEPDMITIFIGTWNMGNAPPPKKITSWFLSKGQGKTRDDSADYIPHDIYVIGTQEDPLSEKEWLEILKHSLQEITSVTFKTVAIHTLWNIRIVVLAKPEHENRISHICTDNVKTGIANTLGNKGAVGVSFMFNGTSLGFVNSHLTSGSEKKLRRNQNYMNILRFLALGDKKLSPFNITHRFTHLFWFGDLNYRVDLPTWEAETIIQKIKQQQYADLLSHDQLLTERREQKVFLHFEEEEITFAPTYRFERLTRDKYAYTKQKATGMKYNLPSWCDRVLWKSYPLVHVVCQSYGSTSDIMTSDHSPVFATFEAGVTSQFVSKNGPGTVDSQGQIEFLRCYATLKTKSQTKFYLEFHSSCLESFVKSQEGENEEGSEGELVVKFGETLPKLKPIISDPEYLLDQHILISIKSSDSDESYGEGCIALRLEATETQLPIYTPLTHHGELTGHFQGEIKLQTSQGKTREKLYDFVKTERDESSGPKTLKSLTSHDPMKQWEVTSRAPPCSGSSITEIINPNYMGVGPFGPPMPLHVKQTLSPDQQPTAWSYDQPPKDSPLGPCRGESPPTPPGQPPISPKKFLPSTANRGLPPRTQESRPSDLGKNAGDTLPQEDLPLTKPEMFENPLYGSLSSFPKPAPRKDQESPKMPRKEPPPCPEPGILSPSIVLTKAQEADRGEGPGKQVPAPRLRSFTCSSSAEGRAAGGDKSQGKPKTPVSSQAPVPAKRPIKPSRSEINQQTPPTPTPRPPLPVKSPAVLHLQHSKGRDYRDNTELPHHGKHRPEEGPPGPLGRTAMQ

SHIP1 [2] = target: T2, SHIP1; details: scintillation proximity assay, Stenton et al; cited from earlier work
[3] = target: T3, Clover-SHIP1 and mRuby2-STAT3 (Mus musculus, UniProt Q9ES52); experiment: Acceptor photobleaching FRET analysis; type: cell-based; details: J17 SHIP1−/− cells expressing Clover-SHIP1/mRuby2-STAT3; 1 minute; 100 ng/ml IL10, IL6 or 20 μM I-2
T3 construct: expressed in transfected cells; host or cells: J17 (SHIP1-/- mouse macrophage line), lentiviral transduction
Protocol: Acceptor Photobleaching FRET analysis. J17 cells expressing Clover-SHIP1 and/or mRuby2-STAT3 were seeded at 50×10^4 cells per well in 8-well Ibidi p-Slides (Ibidi GmbH, Martinsried, Germany). After overnight incubation, cells were serum-starved with Mac media containing 1% serum for 3 hours before media replacement with Leibovitz's (L-15) media (Invitrogen, Burlington, ON) supplemented with 1% serum, 10 μM β-mercaptoethanol, 150 μM monothioglycolate and 1 mM L-glutamine for confocal microscopy imaging. Cells were imaged on a Leica SP8X on DMi8 confocal microscope system with a 63×/1.3 Gly HC PL APO CS2 objective using a white light laser line with 488 nm for donor excitement and 555 nm for acceptor excitement. Photobleaching FRET analysis was performed by measuring Clover-SHIP1 donor fluorescence intensity before and after bleaching the acceptor, mRuby2-STAT3, within a field of cells ‘region of interest’ (ROI), at 100% laser intensity for 60 frames. Acceptor photobleaching was performed first in resting cells then at 1 minute (±5 seconds) following ‘mock’ stimulation with L-15 media, or L-15 media containing 100 ng/ml IL10, IL6 or 20 μM compound I-2. Donor and acceptor fluorescence intensity of individual cells within the bleached ROI was quantified before and after bleaching. Percentage FRET efficiency was calculated as % FRETeff=100×(Dpost−Dpre)/Dpost where Dpre and Dpost represent Clover-SHIP1 donor fluorescence intensity before and after bleaching, respectively.

SHIP1 and STAT3 = target: T4, SHIP1 and STAT3 (Mus musculus, UniProt Q9ES52); experiment: In vitro pull down assay of His6-SHIP1 with STAT3; type: cell-based; details: J17 His6-SHIP1 cells; 100 ng/ml IL10 or IL6, 20 μM compound I-2; 5 minutes
T4 construct: expressed in transfected cells; host or cells: J17 (SHIP1-/- mouse BMDM-derived line), lentiviral transduction
T4 sequence (Q9ES52 1-1191): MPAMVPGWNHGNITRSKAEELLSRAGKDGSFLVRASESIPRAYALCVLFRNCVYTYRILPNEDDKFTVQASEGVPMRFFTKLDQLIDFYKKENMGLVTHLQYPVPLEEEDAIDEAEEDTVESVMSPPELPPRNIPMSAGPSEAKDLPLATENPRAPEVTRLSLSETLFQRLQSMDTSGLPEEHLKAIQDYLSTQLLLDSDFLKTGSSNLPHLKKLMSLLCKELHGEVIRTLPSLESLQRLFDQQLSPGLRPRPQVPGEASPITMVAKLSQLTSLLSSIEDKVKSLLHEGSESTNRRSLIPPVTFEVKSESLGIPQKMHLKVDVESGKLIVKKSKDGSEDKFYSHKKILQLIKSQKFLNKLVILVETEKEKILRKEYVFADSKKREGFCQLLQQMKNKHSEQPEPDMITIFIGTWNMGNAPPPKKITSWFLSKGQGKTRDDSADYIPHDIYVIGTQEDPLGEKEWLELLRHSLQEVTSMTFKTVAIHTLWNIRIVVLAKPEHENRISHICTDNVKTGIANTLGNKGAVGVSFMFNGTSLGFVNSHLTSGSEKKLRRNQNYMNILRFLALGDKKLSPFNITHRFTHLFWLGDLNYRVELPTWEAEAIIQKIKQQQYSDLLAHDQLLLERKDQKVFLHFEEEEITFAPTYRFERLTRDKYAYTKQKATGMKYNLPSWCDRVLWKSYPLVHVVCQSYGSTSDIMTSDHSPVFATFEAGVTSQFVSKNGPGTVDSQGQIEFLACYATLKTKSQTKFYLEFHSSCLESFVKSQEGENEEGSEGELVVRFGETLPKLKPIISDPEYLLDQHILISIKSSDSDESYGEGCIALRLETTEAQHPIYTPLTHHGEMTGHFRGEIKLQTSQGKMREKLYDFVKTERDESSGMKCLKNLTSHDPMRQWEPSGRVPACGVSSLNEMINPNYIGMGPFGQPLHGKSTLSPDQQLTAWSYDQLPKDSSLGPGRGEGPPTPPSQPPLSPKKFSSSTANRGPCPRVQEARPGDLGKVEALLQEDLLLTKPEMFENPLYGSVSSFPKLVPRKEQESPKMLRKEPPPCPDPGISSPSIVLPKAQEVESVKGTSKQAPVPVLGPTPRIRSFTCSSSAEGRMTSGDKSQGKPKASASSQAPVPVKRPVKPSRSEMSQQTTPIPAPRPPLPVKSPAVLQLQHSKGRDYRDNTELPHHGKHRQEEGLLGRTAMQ
Protocol: In vitro pull down assay. J17 His6-SHIP1 and Y190F cells were seeded at 2×10^6 cells per well in a 6-well plate. After overnight incubation, fresh cell media was added for 30 minutes before stimulation with 100 ng/ml IL10, […] or 20 μM compound I-2 for 5 minutes. Cells were lysed with Protein Solubilization Buffer (PSB, 50 mM Hepes, pH 7.5, […], 10 mM Na Pyrophosphate, 2 mM NaVO4, 2 mM Na Molybdate, 2 mM EDTA) containing 1% octylglucoside, 0.01 M imidazole, and protease inhibitor cocktail (Roche Diagnostics, Laval, QC) for 30 minutes at 4° C. and centrifuged at 10000 rpm for 15 minutes. EDTA resistant Ni beads (Roche Diagnostics, Laval, QC) were added to supernatants and the mixture incubated at 4° C. for 1 hour before spinning down and washing of beads three times with 0.1% octylglucoside wash buffer in PSB. Bead samples and starting material cell lysates were separated on a 7.5% SDS-PAGE gel.
Immunoblotting. Protein lysates were separated on SDS-PAGE gels and transferred onto polyvinylidene fluoride (PVDF) membrane (Millipore, Etobicoke, ON). Membranes were blocked and probed, where appropriate, with the following primary antibodies overnight: SHIP1 (P1C1) (Santa Cruz Biotechnology), pSHIP1 (Y190) (Kinexus), STAT3 (9D8) (ThermoFisher Scientific), pSTAT3 (Y705) (Thermo Fisher Scientific), STAT1 (BD Transduction Laboratories), pSTAT1 (Y701) (Upstate Biotechnology), GAPDH and actin (Sigma-Aldrich). Membranes were developed with either Alexa Fluor® 660 anti-mouse IgG or Alexa Fluor® 680 anti-rabbit IgG antibodies (Thermo Fisher Scientific) and imaged using a LI-COR Odyssey Imager.

PAC2-K681A = target: T5, PAC2-K681A (Mus musculus, UniProt Q9ES52, K681A); experiment: Biolayer interferometry, PAC2-K681A; type: binding; details: 20 μM analyte; K681A vs wild-type PAC2
T5 construct: PAC1 and PAC2 consists of phosphatase and C2 domain (residues aa 402-861 and aa 402-857 respectively); made in house; host or cells: E. coli BL21 co-transformed with pBirAcm
T5 sequence (Q9ES52 402-857 K681A): T1 sequence (Q9ES52 402-857) with K280A
Protocol: as §1, §2

T3 sequence (P42227 whole entry partner, one chain of several): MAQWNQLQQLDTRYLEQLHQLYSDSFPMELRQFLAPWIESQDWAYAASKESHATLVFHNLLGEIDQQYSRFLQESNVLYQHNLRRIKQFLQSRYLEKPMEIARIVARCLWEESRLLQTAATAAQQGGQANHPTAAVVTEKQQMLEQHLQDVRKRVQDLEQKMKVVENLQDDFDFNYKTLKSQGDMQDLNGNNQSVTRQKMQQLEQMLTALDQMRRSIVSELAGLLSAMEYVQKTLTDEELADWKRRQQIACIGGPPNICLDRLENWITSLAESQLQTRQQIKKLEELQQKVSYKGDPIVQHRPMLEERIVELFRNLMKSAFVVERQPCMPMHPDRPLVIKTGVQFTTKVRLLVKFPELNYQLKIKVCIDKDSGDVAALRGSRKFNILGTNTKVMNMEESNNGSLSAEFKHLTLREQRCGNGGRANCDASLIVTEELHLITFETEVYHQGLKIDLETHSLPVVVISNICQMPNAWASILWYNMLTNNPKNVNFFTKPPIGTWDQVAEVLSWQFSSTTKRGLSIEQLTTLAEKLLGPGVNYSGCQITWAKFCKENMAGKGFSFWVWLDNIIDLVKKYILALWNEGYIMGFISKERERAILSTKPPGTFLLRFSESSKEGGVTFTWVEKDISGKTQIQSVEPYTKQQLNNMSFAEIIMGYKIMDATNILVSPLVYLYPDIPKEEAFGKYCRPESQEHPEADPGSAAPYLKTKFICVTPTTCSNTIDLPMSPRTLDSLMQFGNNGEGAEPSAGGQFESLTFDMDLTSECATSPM

Compound: C=C1CC[C@H]2[C@H](CN)[C@@H]([C@@]3(C)CC[C@H](O)C[C@@H]3CO)CC[C@]12C [AQX-1125/Rosiptor]
binding to SHIP1 (PAC2 WT) in BLI assay (PAC2 WT): binds very poorly
SHIP1 phosphatase enhancing activity (SHIP1 [1]): marginal
signal of tritiated compound binding to SHIP1 protein (SHIP1 [2]): ~300 cpm

Clover-mRuby2 FRET signal [3]: not
Compound: IL6: pro-inflammatory cytokine IL6
association (co-precipitation) of SHIP1 and STAT3 (SHIP1 and STAT3): failed to induce STAT3 association with SHIP1

Compound: PI(3,4)P2 [reference compound]
binding to PAC2 with K681A substitution (BLI) (PAC2-K681A): impairs
